The subject of experiment [1] is Mus musculus. As to the kind of experiment: Antiinflammatory activity against Naja mossambica PLA2-induced Swiss mouse paw edema assessed as inhibition of paw volume at 5 mg/kg, ip administered before 30 mins of PLA2 challenge measured after 60 mins relative to control. It is filed as functional. The conditions noted are these: route intraperitoneal.
The subject of experiment [2] is Mus musculus. As to the kind of experiment: Antiinflammatory activity against Naja mossambica PLA2-induced Swiss mouse paw edema assessed as inhibition of paw volume at 5 mg/kg, ip administered before 30 mins of PLA2 challenge measured after 30 mins relative to control. Format: functional. The following applies: 0.5 h, route intraperitoneal.
For experiment [3], the system named is Mus musculus. Briefly: Antiinflammatory activity against TPA-induced ear edema Swiss mouse chronic dermatitis model assessed as inhibition of increase in ear weight at 0.5 mg/ear relative to control. Format: functional.
Experiment [4] relates to Mus musculus. Briefly: Antiinflammatory activity against carrageenan-induced Swiss mouse paw edema assessed as inhibition of paw volume at 10 mg/kg, po administered 1 hr before carrageenan challenge measured after 3 hrs relative to control. Format: functional. (In general: In the carrageenan paw model, swelling and tenderness develop within hours.)
Experiment [5] deals with Mus musculus. As to the kind of experiment: Antiinflammatory activity against TPA-induced ear edema in Swiss mouse chronic dermatitis model assessed as inhibition of increase in ear weight. Format: functional.
For experiment [6], the species on record is Mus musculus. As to the kind of experiment: Antiinflammatory activity against Swiss mouse chronic dermatitis model assessed as inhibition of TPA-induced tissue myeloperoxidase activity at 0.5 mg/ear applied twice daily for 4 days measured after 6 hrs relative to control. Format: functional.
Experiment [7] relates to Mus musculus. Briefly: Antiinflammatory activity against carrageenan-induced Swiss mouse paw edema assessed as inhibition of paw volume at 10 mg/kg, po administered 1 hr before carrageenan challenge measured after 1 hr relative to control. It is filed as functional.
Experiment [8] has as its system Mus musculus. Briefly: Antiinflammatory activity against carrageenan-induced Swiss mouse paw edema assessed as inhibition of paw volume at 10 mg/kg, po administered 1 hr before carrageenan challenge measured after 5 hrs relative to control. It is filed as functional.
Experiment [9] has as its system Platelet. Briefly: Inhibition of calcium ionophore A-23187/calcium-stimulated 12-hydroxyheptadecatrienoic acid production in human platelets. It is filed as functional.
In experiment [10] the test system is Mus musculus. As to the kind of experiment: Antiinflammatory activity against TPA-induced ear edema in Swiss mouse chronic dermatitis model assessed as inhibition of increase in ear weight at 0.25 mg/ear relative to control. It is filed as functional.
For experiment [11], the species on record is Mus musculus. As to the kind of experiment: Antiinflammatory activity against Swiss mouse chronic dermatitis model assessed as inhibition of TPA-induced tissue myeloperoxidase activity at 0.25 mg/ear applied twice daily for 4 days measured after 6 hrs relative to control. Format: functional.
The nature of experiment [12]: Inhibition of PKC catalytic subunit.
The nature of experiment [13]: Inhibition of calcium ionophore A-23187/calcium-stimulated LTB4 production in rat polymorphonuclear leukocytes. Format: functional.

The structures appear in SMILES notation. pIC50: −log10 of the molar value.

A word on the inhibition in vivo: it is the percentage by which the read-out fell short of the control. Regarding `CN1CCC(=C2c3ccccc3C=Cc3ccccc32)CC1` [CYPROHEPTADINE], the figures for the inhibition in vivo at 5 mg/kg in [1] and in [2] were 63% and 66%, respectively.

For the molecule `COc1ccc2c(c1)c(CC(=O)O)c(C)n2C(=O)c1ccc(Cl)cc1` [INDOMETHACIN], the “inhibition (INH)” value in experiment [3] is 82%; in experiment [6] it was 36%. In addition, the inhibition in vivo at 10 mg/kg amounted to 60% in experiment [4], 14% in experiment [7] and 31% in experiment [8]. For the same molecule, the ID50 in [5] was 0.29 µmol.

By pIC50 is commonly meant the IC50 on a negative log10 scale, so that one unit is a factor of ten. A low value points to a large IC50. For the molecule `CC(C)=CCc1c2c(c(O)c3c(=O)c(-c4ccc(O)cc4)coc13)C=CC(C)(C)O2` [WARANGALONE], the “inhibition (INH)” value in experiment [9] is recorded as below 20%; in experiment [10] it was 78%; in [11], 41%; in experiment [13], below 20%. Also, the ID50 in [5] is 0.54 µmol. In experiment [12], this molecule had a pIC50 of 5.46. For the same molecule, the inhibition in vivo at 5 mg/kg in experiment [1] is 68%; in experiment [2], 21%.

Source of the values: ChEMBL document CHEMBL1146546, “Warangalone, the isoflavonoid anti-inflammatory principle of Erythrina addisoniae stem bark” (J Nat Prod, 2003).
